Here are results for 3 compounds from patent US9889115B2, “Fitness assay and associated methods” (priority 1998, dated 2018).

Assay [1] has as its target wild-type HIV protease (Human immunodeficiency virus type 1 group M subtype B, UniProt P04585). As to the kind of experiment: biochemical.
In assay [2] the test system is wild-type HIV. The assay is described as follows: wild-type antiretroviral activity (Table 4). The note with it: Human immunodeficiency virus 1, read-out: ID50.
Assay [3] deals with HIV-1LAI. As to the kind of experiment: PHA-PBMC assay, p24 Gag protein production. The assay is classed as cell-based. The note with it: Human immunodeficiency virus 1; HIV-1LAI, SI; PHA-PBMC, p24 (Table 3).
Assay [4] concerns HIV-1BAL. The assay is described as follows: PHA-PBMC assay, p24 Gag protein production. It counts as cell-based. As to conditions: Human immunodeficiency virus 1; HIV-1BAL, NSI; PHA-PBMC, p24 (Table 3).
In assay [5] the test system is HIV-1ERS104pre. The assay is described as follows: PHA-PBMC assay, p24 Gag protein production. It counts as cell-based. As to conditions: Human immunodeficiency virus 1; HIV-1ERS104pre, SI; PHA-PBMC, p24. As for the experimental part: (§1) The patient profiles are shown below in Table 2.
(§2) To determine protease inhibitory activity against multidrug resistant HIV, the IC50's were measured against a panel of clinically isolated mutant HIV isolates.
(§3) All drug sensitivities were performed in triplicate. In order to determine whether the HIV isolates were syncitium inducing (SI) or non-syncitium inducing (NSI), an aliquot of viral stock supernatant, containing 100 TCID50, was cultured with 1×10^5 MT-2 cells in a 12-well plate. Cultures were maintained for four weeks and were examined for syncytium formation twice a week.

Assay [6] has as its system multidrug-resistant HIV-1 clinical isolate, patient 1. As to the kind of experiment: PHA-PBMC assay, p24 Gag protein production. The assay is classed as cell-based. As to conditions: Human immunodeficiency virus 1; Patient/Isolate code 1; PHA-PBMC, p24. As for the experimental part:
as §1, §2, §3

The test system of assay [7] is multidrug-resistant HIV-1 clinical isolate, patient 2. The assay is described as follows: PHA-PBMC assay, p24 Gag protein production. The assay is classed as cell-based. The note with it: Human immunodeficiency virus 1; Patient/Isolate code 2; PHA-PBMC, p24. As for the experimental part: as §1, §2, §3
Assay [8] has as its system multidrug-resistant HIV-1 clinical isolate, patient 3. As to the kind of experiment: PHA-PBMC assay, p24 Gag protein production. The assay is classed as cell-based. As to conditions: Human immunodeficiency virus 1; Patient/Isolate code 3; PHA-PBMC, p24. As for the experimental part:
as §1, §2, §3

Assay [9] deals with multidrug-resistant HIV-1 clinical isolate, patient 4. The assay is described as follows: PHA-PBMC assay, p24 Gag protein production. The assay is classed as cell-based. As to conditions: Human immunodeficiency virus 1; Patient/Isolate code 4; PHA-PBMC, p24. As for the experimental part:
as §1, §2, §3

In assay [10] the test system is multidrug-resistant HIV-1 clinical isolate, patient 5. The assay is described as follows: PHA-PBMC assay, p24 Gag protein production. It counts as cell-based. The note with it: Human immunodeficiency virus 1; Patient/Isolate code 5; PHA-PBMC, p24. As for the experimental part:
as §1, §2, §3

The subject of assay [11] is multidrug-resistant HIV-1 clinical isolate, patient 6. As to the kind of experiment: PHA-PBMC assay, p24 Gag protein production. The assay is classed as cell-based. As to conditions: Human immunodeficiency virus 1; Patient/Isolate code 6; PHA-PBMC, p24. As for the experimental part:
as §1, §2, §3

The test system of assay [12] is multidrug-resistant HIV-1 clinical isolate, patient 7. The assay is described as follows: PHA-PBMC assay, p24 Gag protein production. The assay is classed as cell-based. As to conditions: Human immunodeficiency virus 1; Patient/Isolate code 7; PHA-PBMC, p24. As for the experimental part: as §1, §2, §3
Assay [13] deals with multidrug-resistant HIV-1 clinical isolate, patient 8. As to the kind of experiment: PHA-PBMC assay, p24 Gag protein production. It counts as cell-based. As to conditions: Human immunodeficiency virus 1; Patient/Isolate code 8; PHA-PBMC, p24. As for the experimental part: as §1, §2, §3
The subject of assay [14] is multidrug-resistant HIV-1 clinical isolate, patient 10. The assay is described as follows: microbe, parasite or virus in culture. As to conditions: Human immunodeficiency virus 1; Patient Isolate 10. The assay is classed as cell-based. As for the experimental part: (§4) The mutant multidrug-resistant HIV-1 strains corresponding to each patient, numbered 9-35, were genetically analyzed in terms of the nucleic acid sequences of the protease (PR) and a portion of the reverse transcriptase (RT) genes from which mutations in these enzymes were determined. The mutations in the protease and reverse transcriptase of the multidrug-resistant viruses isolated from each patient are shown below in Table 9b.

Assay [15] deals with multidrug-resistant HIV-1 clinical isolate, patient 11. As to the kind of experiment: microbe, parasite or virus in culture. The assay is classed as cell-based. The note with it: Human immunodeficiency virus 1; Patient Isolate 11. As for the experimental part:
as §4

The test system of assay [16] is multidrug-resistant HIV-1 clinical isolate, patient 12. As to the kind of experiment: microbe, parasite or virus in culture. It counts as cell-based. As to conditions: Human immunodeficiency virus 1; Patient Isolate 12. As for the experimental part: as §4
Assay [17] deals with multidrug-resistant HIV-1 clinical isolate, patient 13. The assay is described as follows: microbe, parasite or virus in culture. It counts as cell-based. The note with it: Human immunodeficiency virus 1; Patient Isolate 13. As for the experimental part: as §4
Assay [18] relates to multidrug-resistant HIV-1 clinical isolate, patient 14. The assay is described as follows: microbe, parasite or virus in culture. The assay is classed as cell-based. The note with it: Human immunodeficiency virus 1; Patient Isolate 14. As for the experimental part: as §4
Assay [19] has as its system multidrug-resistant HIV-1 clinical isolate, patient 15. The assay is described as follows: microbe, parasite or virus in culture. It counts as cell-based. The note with it: Human immunodeficiency virus 1; Patient Isolate 15. As for the experimental part: as §4
Assay [20] concerns multidrug-resistant HIV-1 clinical isolate, patient 16. The assay is described as follows: microbe, parasite or virus in culture. It counts as cell-based. As to conditions: Human immunodeficiency virus 1; Patient Isolate 16. As for the experimental part: as §4
In assay [21] the test system is multidrug-resistant HIV-1 clinical isolate, patient 17. The assay is described as follows: microbe, parasite or virus in culture. The assay is classed as cell-based. The note with it: Human immunodeficiency virus 1; Patient Isolate 17. As for the experimental part: as §4
The test system of assay [22] is multidrug-resistant HIV-1 clinical isolate, patient 18. As to the kind of experiment: microbe, parasite or virus in culture. The assay is classed as cell-based. The note with it: Human immunodeficiency virus 1; Patient Isolate 18. As for the experimental part: as §4
In assay [23] the test system is multidrug-resistant HIV-1 clinical isolate, patient 19. As to the kind of experiment: microbe, parasite or virus in culture. It counts as cell-based. The note with it: Human immunodeficiency virus 1; Patient Isolate 19. As for the experimental part: as §4
The test system of assay [24] is multidrug-resistant HIV-1 clinical isolate, patient 20. As to the kind of experiment: microbe, parasite or virus in culture. It counts as cell-based. As to conditions: Human immunodeficiency virus 1; Patient Isolate 20. As for the experimental part: as §4
In assay [25] the test system is multidrug-resistant HIV-1 clinical isolate, patient 21. As to the kind of experiment: microbe, parasite or virus in culture. The note with it: Human immunodeficiency virus 1; Patient Isolate 21. It counts as cell-based. As for the experimental part:
as §4

Assay [26] deals with multidrug-resistant HIV-1 clinical isolate, patient 23. As to the kind of experiment: microbe, parasite or virus in culture. The assay is classed as cell-based. The note with it: Human immunodeficiency virus 1; Patient Isolate 23. As for the experimental part:
as §4

Assay [27] deals with multidrug-resistant HIV-1 clinical isolate, patient 27. As to the kind of experiment: microbe, parasite or virus in culture. The note with it: Human immunodeficiency virus 1; Patient Isolate 27. It counts as cell-based. As for the experimental part:
as §4

In assay [28] the test system is multidrug-resistant HIV-1 clinical isolate, patient 28. The assay is described as follows: microbe, parasite or virus in culture. As to conditions: Human immunodeficiency virus 1; Patient Isolate 28. The assay is classed as cell-based. As for the experimental part: as §4
For assay [29], the system named is multidrug-resistant HIV-1 clinical isolate, patient 29. As to the kind of experiment: microbe, parasite or virus in culture. The assay is classed as cell-based. As to conditions: Human immunodeficiency virus 1; Patient Isolate 29. As for the experimental part: as §4
Assay [30] concerns multidrug-resistant HIV-1 clinical isolate, patient 30. The assay is described as follows: microbe, parasite or virus in culture. The assay is classed as cell-based. The note with it: Human immunodeficiency virus 1; Patient Isolate 30. As for the experimental part: as §4
Assay [31] concerns multidrug-resistant HIV-1 clinical isolate, patient 31. As to the kind of experiment: microbe, parasite or virus in culture. It counts as cell-based. The note with it: Human immunodeficiency virus 1; Patient Isolate 31. As for the experimental part:
as §4

Assay [32] relates to multidrug-resistant HIV-1 clinical isolate, patient 32. As to the kind of experiment: microbe, parasite or virus in culture. The assay is classed as cell-based. As to conditions: Human immunodeficiency virus 1; Patient Isolate 32. As for the experimental part:
as §4

Assay [33] has as its system multidrug-resistant HIV-1 clinical isolate, patient 33. The assay is described as follows: microbe, parasite or virus in culture. As to conditions: Human immunodeficiency virus 1; Patient Isolate 33. The assay is classed as cell-based. As for the experimental part: as §4
The subject of assay [34] is multidrug-resistant HIV-1 clinical isolate, patient 35. The assay is described as follows: microbe, parasite or virus in culture. It counts as cell-based. As to conditions: Human immunodeficiency virus 1; Patient Isolate 35. As for the experimental part: as §4
For assay [35], the system named is multidrug-resistant HIV-1 clinical isolate, patient 9. As to the kind of experiment: microbe, parasite or virus in culture. As to conditions: Human immunodeficiency virus 1; Patient Isolate 9. The assay is classed as cell-based. As for the experimental part:
as §4

Assay [36] relates to multidrug-resistant HIV-1 clinical isolate, patient 22. As to the kind of experiment: IC50 against multidrug-resistant clinical isolates (Table 9a). The assay is classed as cell-based. The note with it: Human immunodeficiency virus 1. As for the experimental part:
as §4

Assay [37] has as its system multidrug-resistant HIV-1 clinical isolate, patient 34. The description is as above. It counts as cell-based. The note with it: Human immunodeficiency virus 1. As for the experimental part:
as §4

In assay [38] the test system is wild-type HIV-1 (WT). As to the kind of experiment: IC50 against wild-type HIV-1 (Table 9a). The assay is classed as cell-based. The note with it: Human immunodeficiency virus 1; (WT).
Assay [39] deals with multidrug-resistant strains of HIV-1. As to the kind of experiment: PHA-PBMC p24 assay, panel of eight multidrug-resistant clinical isolates. The assay is classed as cell-based. As to conditions: eight multidrug-resistant clinical isolates of Table 3. As for the experimental part:
as §1, §2, §3

Each structure is given as a SMILES string.

`Cc1ccc(S(=O)(=O)N(CC(C)C)CC(O)C(Cc2ccccc2)NC(=O)OC2COC3OCCC23)cc1` (centres unmarked) gave a Ki in assay [1] of 1.2 nM. For the same compound, in assay [2], the IC50 turned out to be 3.5 nM.

With `COc1ccc(S(=O)(=O)N(CC(C)C)CC(O)C(Cc2ccccc2)NC(=O)OC2COC3OCCCC23)cc1` (centres unmarked), in assay [1], the affinity, expressed as Ki, was 2.2 nM. Moreover, the IC50 in [2] was 4.5 nM.

On to `CC(C)c1nc(CN(C)C(=O)N[C@H](C(=O)N[C@@H](Cc2ccccc2)C[C@H](O)[C@H](Cc2ccccc2)NC(=O)OCc2cncs2)C(C)C)cs1` [RTV, Ritonavir], for which the IC50 was 4.7 nM in [3]; 18 nM in assay [4]; 55 nM in assay [5]; > 1000 nM in assay [6]; > 1000 nM in assay [7]; > 1000 nM in [8]. Besides, the IC50 in assay [9] was > 1000 nM; in assay [10], > 1000 nM; in assay [11], > 1000 nM; in assay [12] it was > 1000 nM; in assay [13], > 1000 nM; in assay [14], 2030 nM. Further, the IC50 worked out at 10 nM in assay [15]; 2470 nM in [16]; 1640 nM in assay [17]; 40 nM in assay [18]; 1140 nM in assay [19]; 1340 nM in [20]. The IC50 in assay [21] turned out to be 870 nM; in [22] it was 3020 nM; in assay [23] it was 2940 nM; in assay [24] it was 1900 nM; in assay [25] it was 2180 nM; in [26], 1820 nM. In addition, the IC50 was found to be 2970 nM in assay [27]; 2660 nM in [28]; 360 nM in assay [29]; 1030 nM in assay [30]; 850 nM in [31]; 370 nM in assay [32]. The IC50 in assay [33] came to 180 nM; in assay [34] it was 2600 nM; in assay [35], 530 nM; in [36], 560 nM; in assay [37] it was 3380 nM; in [38] it was 19 nM. Also, the “potency against the multidrug-resistant strains (in words)” value in assay [39] is “virtually inactive”.
